Data reported in patent US20220324835A1 (Nurix Therapeutics, Inc., priority 2018, published 2022).

What was measured:
Cbl-b [1] = target: T1, Cbl-b (Homo sapiens, UniProt Q13191); experiment: Cbl-b activity assay (Cbl-b inhibition assay), TR-FRET of Cbl-b interaction with UbcH5B-Ub; assay type: biochemical; conditions: assay buffer with 100 mM NaCl, 60 nM Src kinase; read-out: Cbl-b activity IC50
Summary of the method: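 Compound-treated Cbl-b was incubated 1.5 h with Src kinase (60 nM final; 30 nM for asterisked values, which also used 50 mM instead of 100 mM NaCl), 1 mM ATP and 5 mM MgCl2. Binding to fluorescent Ub-loaded UbcH5B (C85K mutant) was then read by TR-FRET after 1 h more.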

T-cell [2] = experiment: CD25 cell surface staining on T-cells co-stimulated with anti-CD3 and anti-CD28 antibody (Biological Example 2); assay type: cell-based, human; conditions: Homo sapiens, T-cell, fold change over baseline, primary human total T-cells, read-out: CD25 staining Anti-CD3/Anti-CD28 stimulation; for fold induction at 0.3 µM: 0.3 μM Cbl-b inhibitor; for fold induction at 1 µM: 1 μM Cbl-b inhibitor; for fold induction at 4 µM: 4 μM Cbl-b inhibitor
Summary of the method: (§1)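 Values are fold-change over baseline: readings (IL-2 release, CD25 staining) from inhibitor-treated T-cells divided against untreated cells […]. No detailed procedure stated.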

T-cell [3] = experiment: IL-2 secretion from T-cells stimulated with anti-CD3 antibody alone (Biological Example 2); assay type: cell-based, human; conditions: T-cell, fold change over baseline, primary human total T-cells, read-out: IL-2 secretion Anti-CD3 stimulation; for fold induction at 1 µM: 1 μM Cbl-b inhibitor; for fold induction at 8 µM: 8 μM Cbl-b inhibitor
Cbl-b (residues 36-427) = Cbl-b (residues 36-427) (Homo sapiens, UniProt Q13191); experiment: Cbl-b binding assay (SPR, Biacore T200); conditions: 20° C., 1:1 binding model
Summary of the method: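 NeutrAvidin capture chip, 20° C; 50 s injections at 50 μl/min, 90-180 s dissociation; 0.3 M NaCl regeneration. Asterisked column: 50 mM NaCl buffer and 30 nM Src kinase in place of 100 mM NaCl and 60 nM Src kinase. 1:1 fit.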

T-cell [4] = experiment: CD25 cell surface staining on T-cells stimulated with anti-CD3 antibody alone (Biological Example 2); assay type: cell-based, human; conditions: T-cell, fold change over baseline, primary human total T-cells, read-out: CD25 staining Anti-CD3 stimulation; for fold induction at 1 µM: 1 μM Cbl-b inhibitor; for fold induction at 8 µM: 8 μM Cbl-b inhibitor
T-cell [5] = experiment: IL-2 secretion from T-cells co-stimulated with anti-CD3 and anti-CD28 antibody (Biological Example 2); assay type: cell-based, human; conditions: Homo sapiens, T-cell, fold change over baseline, primary human total T-cells, read-out: IL-2 secretion Anti-CD3/Anti-CD28 stimulation; for fold induction at 0.3 µM: 0.3 μM Cbl-b inhibitor; for fold induction at 1 µM: 1 μM Cbl-b inhibitor; for fold induction at 4 µM: 4 μM Cbl-b inhibitor
Summary of the method: as §1

Cbl-b [6] = target: T1, Cbl-b; experiment: Cbl-b inhibition assay (Cbl-b activity assay, FRET, Biological Example 1; 100 mM NaCl, 60 nM Src kinase); assay type: biochemical; conditions: upper bound stated in text lists; read-out: IC50 values in the Cbl-b inhibition assay of Biological Example 1
Summary of the method: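 Inhibition is read as loss of FRET signal. The signal arises when Src-phosphorylated, N-terminal biotinylated Avi-Cbl-b (captured by streptavidin-terbium) binds UbcH5B carrying covalently linked Bodipy-Fluorescein-tagged ubiquitin.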

Chain of Cbl-b (residues 36-427) (Q13191 36-427): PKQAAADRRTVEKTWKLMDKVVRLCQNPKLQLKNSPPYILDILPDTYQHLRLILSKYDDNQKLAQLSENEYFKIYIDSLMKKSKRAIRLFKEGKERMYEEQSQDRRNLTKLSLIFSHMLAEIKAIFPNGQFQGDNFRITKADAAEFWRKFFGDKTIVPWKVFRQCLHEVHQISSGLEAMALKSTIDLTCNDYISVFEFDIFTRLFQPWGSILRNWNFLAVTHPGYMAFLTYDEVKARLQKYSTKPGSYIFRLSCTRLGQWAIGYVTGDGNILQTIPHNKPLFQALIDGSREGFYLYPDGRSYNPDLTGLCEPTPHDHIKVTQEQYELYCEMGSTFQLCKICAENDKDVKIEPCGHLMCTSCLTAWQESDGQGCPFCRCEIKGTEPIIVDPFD
T1 sequence (Q13191 36-427): as above

| Structure (SMILES) | IC50 (Cbl-b [1]) | Kd (Cbl-b (residues 36-427)) | IC50 (Cbl-b [6]) | further results |
| --- | --- | --- | --- | --- |
| C[C@H](Cc1nncn1C)c1cc(N[C@H]2CCOC2)nc(N2Cc3c(cccc3C(F)(F)F)C2=O)c1 (stereo in doubt) [Compound 361, 2-(4-((R)-1-(4-methyl-4H-1,2,4-triazol-3-yl)propan-2-yl)-6-((R)-THF-3-ylamino)pyridin-2-yl)-4-(trifluoromethyl)isoindolin-1-one] | 0.301 to 1 µM | 0.301 to 1 µM | – | fold induction at 0.3 µM (T-cell [2]): < 1; fold induction at 1 µM (T-cell [2]): 1.01 to 1.3; fold induction at 4 µM (T-cell [2]): 1.01 to 1.3; fold induction at 1 µM (T-cell [3]): 0.051 to 0.1; fold induction at 8 µM (T-cell [3]): 0.151 to 0.2; fold induction at 1 µM (T-cell [4]): 0.601 to 0.8; fold induction at 8 µM (T-cell [4]): 0.801 to 1; fold induction at 0.3 µM (T-cell [5]): 1.01 to 2.5; fold induction at 1 µM (T-cell [5]): 1.01 to 2.5; fold induction at 4 µM (T-cell [5]): 1.01 to 2.5 |
| C[C@H](Cc1nncn1C)c1cccc(NC(=O)c2cc(C(=O)N3CC[C@H](O)C3)ccc2F)c1 [Compound 254, 2-fluoro-5-((S)-3-hydroxypyrrolidine-1-carbonyl)-N-(3-((R)-1-(4-methyl-4H-1,2,4-triazol-3-yl)propan-2-yl)phenyl)benzamide] | 1 to 3 µM | 3 to 10 µM | ≤ 10 µM | – |
| CC(C)c1nccc2c1CN(c1cccc([C@H](C)Cc3nncn3C)c1)C2=O [Compound 259, (R)-4-isopropyl-2-(3-(1-(4-methyl-4H-1,2,4-triazol-3-yl)propan-2-yl)phenyl)-2,3-dihydro-1H-pyrrolo[3,4-c]pyridin-1-one] | 0.301 to 1 µM | 1 to 3 µM | ≤ 1 µM | – |
| C[C@H](Cc1ncn(C)n1)c1cccc(N2Cc3c(cccc3C(F)(F)F)C2=O)c1 [Compound 263, (R)-2-(3-(1-(1-methyl-1H-1,2,4-triazol-3-yl)propan-2-yl)phenyl)-4-(trifluoromethyl)isoindolin-1-one] | 3 to 10 µM | 3 to 10 µM | ≤ 10 µM | – |
| C[C@H](Cc1ncnn1C)c1cccc(N2Cc3c(cccc3C(F)(F)F)C2=O)c1 [Compound 264, (R)-2-(3-(1-(2-methyl-2H-1,2,4-triazol-3-yl)propan-2-yl)phenyl)-4-(trifluoromethyl)isoindolin-1-one] | 3 to 10 µM | > 10 µM | ≤ 10 µM | – |
| C[C@H](Cc1nnco1)c1cccc(N2Cc3c(cccc3C(F)(F)F)C2=O)c1 [Compound 266, (R)-2-(3-(1-(1,3,4-oxadiazol-2-yl)propan-2-yl)phenyl)-4-(trifluoromethyl)isoindolin-1-one] | 3 to 10 µM | > 10 µM | ≤ 10 µM | – |
| C[C@H](Cc1nccn1C)c1cccc(N2Cc3c(cccc3C(F)(F)F)C2=O)c1 [Compound 267a, (R)-2-(3-(1-(1-methyl-1H-imidazol-2-yl)propan-2-yl)phenyl)-4-(trifluoromethyl)isoindolin-1-one] | 1 to 3 µM | 3 to 10 µM | ≤ 10 µM | – |
| CC(Cc1n[nH]cc1CO)c1cccc(N2Cc3c(cccc3C(F)(F)F)C2=O)c1 (stereo not drawn) [Compound 271, 2-(3-(1-(4-(hydroxymethyl)-1H-pyrazol-3-yl)propan-2-yl)phenyl)-4-(trifluoromethyl)isoindolin-1-one] | 3 to 10 µM | 3 to 10 µM | ≤ 10 µM | – |
| C[C@H](Cc1nncn1C)c1cccc(N2Cc3c(cc(C(=O)O)cc3C(F)(F)F)C2=O)c1 [Compound 273, (R)-2-(3-(1-(4-methyl-4H-1,2,4-triazol-3-yl)propan-2-yl)phenyl)-3-oxo-7-(trifluoromethyl)isoindoline-5-carboxylic acid] | 1 to 3 µM | 3 to 10 µM | ≤ 10 µM | – |
| C[C@H](Cc1nncn1C)c1cc(N2Cc3c(cccc3C(F)(F)F)C2=O)ccc1F [Compound 280, 2-[4-fluoro-3-[(1R)-1-methyl-2-(4-methyl-1,2,4-triazol-3-yl)ethyl]phenyl]-4-(trifluoromethyl)isoindolin-1-one] | 3 to 10 µM | 1 to 3 µM | ≤ 10 µM | – |
| C[C@@H](Cc1nncn1C)c1cc(F)cc(N2Cc3c(cccc3C(F)(F)F)C2=O)c1 [Compound 281b, 2-[3-Fluoro-5-[(1S)-1-methyl-2-(4-methyl-1,2,4-triazol-3-yl)ethyl]phenyl]-4-(trifluoromethyl)isoindolin-1-one] | 3 to 10 µM | 0.1 to 0.3 µM | ≤ 10 µM | – |
| CC(c1cccc(NC(=O)c2ccc(CO)c(C3CC3)n2)c1)C(F)(F)c1nncn1C (stereo not drawn) [Compound 287, 6-cyclopropyl-N-(3-(1,1-difluoro-1-(4-methyl-4H-1,2,4-triazol-3-yl)propan-2-yl)phenyl)-5-(hydroxymethyl)picolinamide] | 0.1 to 0.3 µM | 1 to 3 µM | ≤ 0.5 µM | – |
| CC(c1cccc(N2Cc3c(cccc3C(F)(F)F)C2=O)c1)C(F)(F)c1nncn1C (stereo not drawn) [Compound 294, 2-(3-(1,1-difluoro-1-(4-methyl-4H-1,2,4-triazol-3-yl)propan-2-yl)phenyl)-4-(trifluoromethyl)isoindolin-1-one] | 0.301 to 1 µM | < 0.1 µM | ≤ 0.5 µM | – |
| Cn1cnnc1C(F)(F)C(C)(O)c1cccc(N2Cc3c(cccc3C(F)(F)F)C2=O)c1 (stereo not drawn) [Compound 295, 2-(3-(1,1-difluoro-2-hydroxy-1-(4-methyl-4H-1,2,4-triazol-3-yl)propan-2-yl)phenyl)-4-(trifluoromethyl)isoindolin-1-one] | 3 to 10 µM | 1 to 3 µM | ≤ 10 µM | – |
| Cn1cnnc1C[C@@](C)(F)c1cccc(N2Cc3c(cccc3C(F)(F)F)C2=O)c1 [Compound 298a, (R)-2-(3-(2-fluoro-1-(4-methyl-4H-1,2,4-triazol-3-yl)propan-2-yl)phenyl)-4-(trifluoromethyl)isoindolin-1-one] | 1 to 3 µM | 3 to 10 µM | ≤ 10 µM | – |
| C[C@H](Cc1nncn1C)c1ccnc(NC(=O)c2ccc3ccccc3n2)c1 [Compound 303, (R)-N-(4-(1-(4-methyl-4H-1,2,4-triazol-3-yl)propan-2-yl)pyridin-2-yl)quinoline-2-carboxamide] | 0.301 to 1 µM | 3 to 10 µM | ≤ 1 µM | – |
| C[C@@H](Cc1nncn1C)c1ccnc(N2Cc3c(cccc3C(F)(F)F)C2=O)c1 [Compound 304a, (S)-2-(4-(1-(4-methyl-4H-1,2,4-triazol-3-yl)propan-2-yl)pyridin-2-yl)-4-(trifluoromethyl)isoindolin-1-one] | 3 to 10 µM | > 10 µM | ≤ 10 µM | – |
| CNC(=O)COc1ccc2cnc(C(=O)Nc3cccc([C@H](C)Sc4nncn4C)c3)cc2c1 [Compound 306a, (S)-N-(3-(1-(4-methyl-4H-1,2,4-triazol-3-ylthio)ethyl)phenyl)-6-(2-(methylamino)-2-oxoethoxy)isoquinoline-3-carboxamide] | 0.1 to 0.3 µM | 0.1 to 0.3 µM | – | fold induction at 0.3 µM (T-cell [2]): 1.01 to 1.3; fold induction at 1 µM (T-cell [2]): 1.01 to 1.3; fold induction at 4 µM (T-cell [2]): 1.01 to 1.3; fold induction at 1 µM (T-cell [3]): < 0.05; fold induction at 8 µM (T-cell [3]): < 0.05; fold induction at 1 µM (T-cell [4]): < 0.6; fold induction at 8 µM (T-cell [4]): 0.801 to 1; fold induction at 0.3 µM (T-cell [5]): < 1; fold induction at 1 µM (T-cell [5]): 1.01 to 2.5; fold induction at 4 µM (T-cell [5]): 1.01 to 2.5 |
| C[C@H](Cc1nncn1C)c1cccc(N2Cc3c(cc(CN4CC[C@H](O)C4)cc3C(F)(F)F)C2=O)c1 [Compound 394, 6-(((S)-3-hydroxypyrrolidin-1-yl)methyl)-2-(3-((R)-1-(4-methyl-4H-1,2,4-triazol-3-yl)propan-2-yl)phenyl)-4-(trifluoromethyl)isoindolin-1-one] | < 0.1 µM | < 0.1 µM | ≤ 0.1 µM | – |
| CCCOc1cc([C@H](C)Cc2nncn2C)cc(N2Cc3c(cccc3C(F)(F)F)C2=O)n1 [Example 688, (R)-2-(4-(1-(4-methyl-4H-1,2,4-triazol-3-yl)propan-2-yl)-6-propoxy-pyridin-2-yl)-4-(trifluoromethyl)isoindolin-1-one] | 0.301 to 1 µM | 1 to 3 µM | ≤ 1 µM | – |
